pIC50: −log10 of the molar value. Like-named read-outs stand apart in the source and are kept apart here. Some results are limits rather than exact numbers.

In assay [1] the target is T1, BTK enzyme (Homo sapiens, UniProt Q06187).
T1 construct: purchased Upstate 14-552
Nature of the assay: In vitro BTK kinase assay: BTK-POLYGAT-LS assay. The class given is biochemical. The settings on record: ATP 10 μM, read-out: IC50 (10uMATP). The method in brief:
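Human BTK activity was measured with final 10 μM ATP and 100 nM polyGAT substrate in pH 7.5 Tris buffer with 10 mM MgCl2, DTT, Triton X-100 and casein.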

In assay [2] the target is BTK (phospho-BTK) in human whole blood (Homo sapiens, UniProt Q06187). Nature of the assay: In vitro PD assay in human whole blood (pBTK assay).
BTK (phospho-BTK) in human whole blood, sequence (Q06187 whole entry): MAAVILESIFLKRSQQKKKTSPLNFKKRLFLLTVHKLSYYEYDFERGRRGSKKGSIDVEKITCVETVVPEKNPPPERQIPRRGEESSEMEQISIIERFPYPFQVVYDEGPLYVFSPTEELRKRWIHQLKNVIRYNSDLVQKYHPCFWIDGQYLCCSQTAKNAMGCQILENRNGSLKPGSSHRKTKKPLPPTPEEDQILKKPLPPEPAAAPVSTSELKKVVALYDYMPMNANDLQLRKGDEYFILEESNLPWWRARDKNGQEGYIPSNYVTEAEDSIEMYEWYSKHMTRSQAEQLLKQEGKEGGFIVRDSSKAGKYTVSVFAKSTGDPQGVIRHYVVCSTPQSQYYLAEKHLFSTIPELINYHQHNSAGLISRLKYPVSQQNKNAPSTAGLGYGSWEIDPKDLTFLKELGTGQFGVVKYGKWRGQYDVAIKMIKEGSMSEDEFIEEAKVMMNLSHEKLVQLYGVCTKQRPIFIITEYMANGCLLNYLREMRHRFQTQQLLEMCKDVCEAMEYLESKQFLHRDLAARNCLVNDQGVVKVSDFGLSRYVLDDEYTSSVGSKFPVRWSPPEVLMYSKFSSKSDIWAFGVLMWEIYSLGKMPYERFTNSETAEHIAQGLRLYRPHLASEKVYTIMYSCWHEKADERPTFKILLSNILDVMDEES

T1 sequence (Q06187 whole entry): as above

As to `Cc1cc(-c2cc(Nc3ccc(N4CCN(C)CC4)cn3)ncn2)ccc1CNC(=O)c1cnc(C(C)(C)C)s1` [Example I-69, 2-(tert-butyl)-N-(2-methyl-4-(6-((5-(4-methylpiperazin-1-yl)pyridin-2-yl)amino)pyrimidin-4-yl)benzyl)thiazole-5-carboxamide], the figures for the pIC50 in assay [1] and in assay [2] were greater than 8.00 and greater than 6.30, respectively.

Turning to `CC(C)(C)OC1CN(C(=O)NC2CCCCc3cc(-c4ccnc(Nc5cnn([C@H]6CCOC6)c5)n4)ccc32)C1` (stereo partly drawn) [Example I-334, 3-tert-butoxy-N-[2-[2-[[1-[(3S)-tetrahydrofuran-3-yl]pyrazol-4-yl]amino]pyrimidin-4-yl]-6,7,8,9-tetrahydro-5H-benzo[7]annulen-5-yl]azetidine-1-carboxamide], the pIC50 was greater than 8.00 in assay [1] and greater than 6.30 in assay [2].

As to `Cc1cc(-c2ccnc(Nc3cnn4c3CCC4)n2)ccc1CNC(=O)N1CC(OC(C)(C)C)C1` [Example I-322, 3-tert-butoxy-N-[[4-[2-(5,6-dihydro-4H-pyrrolo[1,2-b]pyrazol-3-ylamino)pyrimidin-4-yl]-2-methyl-phenyl]methyl]azetidine-1-carboxamide], the pIC50 was greater than 8.00 in assay [1] and greater than 6.30 in assay [2].

`Cn1cc(Nc2nccc(-c3ccc4c(c3)CCCCC4NC(=O)N3CC(OC(C)(C)C)C3)n2)cn1` (centres unmarked) [Example I-163, 3-(tert-butoxy)-N-(2-(2-((1-methyl-H-pyrazol-4-yl)amino)pyrimidin-4-yl)-6,7,8,9-tetrahydro-5H-benzo[7]annulen-5-yl)azetidine-1-carboxamide]: the pIC50 is greater than 8.00 in assay [1] and greater than 6.30 in assay [2].

Regarding `Cn1cc(Nc2nccc(-c3ccc4c(c3)CCCC4NC(=O)N3CC(OC(C)(C)C)C3)n2)cn1` (centres unmarked) [Example I-359, 3-tert-butoxy-N-[6-[2-[(1-methylpyrazol-4-yl)amino]pyrimidin-4-yl]tetralin-1-yl]azetidine-1-carboxamide], the pIC50 is greater than 8.00 in assay [1] and greater than 6.30 in assay [2].

On to `Cc1cc(-c2cc(Nc3cc4n(n3)CCCNC4)ncn2)ccc1CNC(=O)c1cnn(C(C)(C)C)c1` [Example I-234, 1-(tert-butyl)-N-(2-methyl-4-(6-((5,6,7,8-tetrahydro-4H-pyrazolo[1,5-a][1,4]diazepin-2-yl)amino)pyrimidin-4-yl)benzyl)-1H-pyrazole-4-carboxamide], for which the pIC50 in assay [1] is greater than 8.00; in assay [2], greater than 6.30.

Take `Cc1c(Nc2nccc(-c3ccc(CNC(=O)N4CCC(C(C)(C)C)C4)c(CCO)c3)n2)cnn1C` (centres unmarked) [Example I-321, 3-tert-butyl-N-[[4-[2-[(1,5-dimethylpyrazol-4-yl)amino]pyrimidin-4-yl]-2-(2-hydroxyethyl)phenyl]methyl]pyrrolidine-1-carboxamide]: the negative-log IC50 (pIC50) in assay [1] was greater than 8.00; in assay [2] it was greater than 6.30.

For the compound `COCCn1cc(Nc2nccc(-c3ccc4c(c3)CCCCC4NC(=O)N3CC(OC(C)(C)C)C3)n2)cn1` (centres unmarked) [Example I-175, 3-(tert-butoxy)-N-(2-(2-((1-(2-methoxyethyl)-1H-pyrazol-4-yl)amino)pyrimidin-4-yl)-6,7,8,9-tetrahydro-5H-benzo[7]annulen-5-yl)azetidine-1-carboxamide], the pIC50 in assay [1] is greater than 8.00; in assay [2] it was greater than 6.30.

With `Cc1cc(-c2cc(Nc3cc4n(n3)CCCN(CCO)C4)ncn2)ccc1CNC(=O)N1CC(OC(C)C)C1` [Example I-274, N-[[4-[6-[[5-(2-hydroxyethyl)-4,6,7,8-tetrahydropyrazolo[1,5-a][1,4]diazepin-2-yl]amino]pyrimidin-4-yl]-2-methyl-phenyl]methyl]-3-isopropoxy-azetidine-1-carboxamide], the pIC50 in assay [1] is greater than 8.00; in assay [2] it was greater than 6.30.

In the case of `Cc1cc(-c2ccnc(Nc3cnn(CCO)c3)n2)ccc1CNC(=O)c1cnn(C(C)(C)C)c1` [Example I-250, 1-tert-butyl-N-[[4-[2-[[1-(2-hydroxyethyl)pyrazol-4-yl]amino]pyrimidin-4-yl]-2-methyl-phenyl]methyl]pyrazole-4-carboxamide], the values for the pIC50 in assay [1] and in assay [2] were greater than 8.00 and greater than 6.30, respectively.

Consider `CCn1cc(Nc2nccc(-c3ccc(CNC(=O)N4CCC(C(C)(C)C)C4)c(C(F)(F)F)c3)n2)cn1` (centres unmarked) [Example I-297, 3-tert-butyl-N-[[4-[2-[(1-ethylpyrazol-4-yl)amino]pyrimidin-4-yl]-2-(trifluoromethyl)phenyl]methyl]pyrrolidine-1-carboxamide], for which the figures for the pIC50 in assay [1] and in assay [2] were greater than 8.00 and greater than 6.30, respectively.

Take `Cc1cc(-c2ccnc(Nc3cnn(C)c3)n2)ccc1CN1CCN(CC(C)C)CC1=O` [Example I-249, 4-isobutyl-1-(2-methyl-4-(2-((1-methyl-1H-pyrazol-4-yl)amino)pyrimidin-4-yl)benzyl)piperazin-2-one]: the pIC50 was greater than 8.00 in assay [1] and greater than 6.30 in assay [2].

Turning to `CC(C)(C)C1CCN(C(=O)NCc2ccc(-c3ccnc(Nc4cnn(CCO)c4)n3)cc2C(F)(F)F)C1` (centres unmarked) [Example I-209, 3-(tert-butyl)-N-(4-(2-((1-(2-hydroxyethyl)-1H-pyrazol-4-yl)amino)pyrimidin-4-yl)-2-(trifluoromethyl)benzyl)pyrrolidine-1-carboxamide], the pIC50 in assay [1] is greater than 8.00; in assay [2], greater than 6.30.

On to `Cn1cc(Nc2nccc(-c3cc(Cl)c(CNC(=O)c4cnc(C(C)(C)C)s4)cc3F)n2)cn1` [Example I-118, 2-(tert-butyl)-N-(2-chloro-5-fluoro-4-(2-((1-methyl-1H-pyrazol-4-yl)amino)pyrimidin-4-yl)benzyl)thiazole-5-carboxamide], for which the negative-log IC50 (pIC50) in assay [1] is greater than 8.00; in assay [2] it was greater than 6.30.

Regarding `Cc1cc(-c2ccnc(Nc3cn[nH]c3)n2)ccc1CNC(=O)N1CC(OC(C)C)C1` [Example I-222, N-(4-(2-((1H-pyrazol-4-yl)amino)pyrimidin-4-yl)-2-methylbenzyl)-3-isopropoxyazetidine-1-carboxamide], the negative logarithm of the IC50 (pIC50) in assay [1] is greater than 8.00; in assay [2] it was 5.82 to 6.30.

In the case of `Cc1cc(-c2ccnc(Nc3cnn(C4CNC4)c3)n2)ccc1CNC(=O)c1cnc(C(C)(C)C)s1` [Example I-42, N-(4-(2-((1-(azetidin-3-yl)-1H-pyrazol-4-yl)amino)pyrimidin-4-yl)-2-methylbenzyl)-2-(tert-butyl)thiazole-5-carboxamide], the negative-log IC50 (pIC50) is greater than 8.00 in assay [1] and greater than 6.30 in assay [2].

For the compound `CCN1CCn2nc(Nc3nccc(-c4ccc(CNC(=O)c5cnc(C(C)(C)C)s5)c(C)c4)n3)cc2C1` [Example I-56, 2-(tert-butyl)-N-(4-(2-((5-ethyl-4,5,6,7-tetrahydropyrazolo[1,5-a]pyrazin-2-yl)amino)pyrimidin-4-yl)-2-methylbenzyl)thiazole-5-carboxamide], the figures for the negative-log IC50 (pIC50) in assay [1] and in assay [2] were greater than 8.00 and 5.82 to 6.30, respectively.

As for `Cn1cc(Nc2nccc(-c3ccc4c(c3)CCCC[C@H]4NC(=O)N3CC(OC(C)(C)C)C3)n2)cn1` [Example I-164, (R)-3-(tert-butoxy)-N-(2-(2-((1-methyl-1H-pyrazol-4-yl)amino)pyrimidin-4-yl)-6,7,8,9-tetrahydro-5H-benzo[7]annulen-5-yl)azetidine-1-carboxamide], the negative logarithm of the IC50 (pIC50) in assay [1] was greater than 8.00; in assay [2] it was greater than 6.30.

Consider `CN1CC[C@H](n2cc(Nc3nccc(-c4ccc(CNC(=O)N5CCC(C(C)(C)C)C5)c(C(F)(F)F)c4)n3)cn2)C1` (stereo partly drawn) [Example I-207, 3-(tert-butyl)-N-(4-(2-((1-((S)-1-methylpyrrolidin-3-yl)-1H-pyrazol-4-yl)amino)pyrimidin-4-yl)-2-(trifluoromethyl)benzyl)pyrrolidine-1-carboxamide], for which the negative-log IC50 (pIC50) in assay [1] is greater than 8.00; in assay [2] it was greater than 6.30.

On to `CC(C)OC1CN(C(=O)NCc2ccc(-c3ccnc(Nc4cnn([C@H]5CCOC5)c4)n3)cc2C(F)(F)F)C1` [Example I-313, 3-isopropoxy-N[[4-[2-[[1-[(3S)-tetrahydrofuran-3-yl]pyrazol-4-yl]amino]pyrimidin-4-yl]-2-(trifluoromethyl)phenyl]methyl]azetidine-1-carboxamide], for which the pIC50 was greater than 8.00 in assay [1] and greater than 6.30 in assay [2].

For the compound `Cn1cc(Nc2nccc(-c3ccc(CNC(=O)c4cc5c(s4)CCOC5)c(C(F)(F)F)c3)n2)cn1` [Example I-115, N-(4-(2-((1-methyl-1H-pyrazol-4-yl)amino)pyrimidin-4-yl)-2-(trifluoromethyl)benzyl)-6,7-dihydro-4H-thieno[3,2-c]pyran-2-carboxamide], the figures for the pIC50 in assay [1] and in assay [2] were greater than 8.00 and 5.82 to 6.30, respectively.

Regarding `Cc1cc(-c2ccnc(Nc3cnn(C(C)C)c3)n2)ccc1CNC(=O)N1CC(OC(C)(C)C)C1` [Example I-306, 3-tert-butoxy-N-[[4-[2-[(1-isopropylpyrazol-4-yl)amino]pyrimidin-4-yl]-2-methyl-phenyl]methyl]azetidine-1-carboxamide], the negative-log IC50 (pIC50) is greater than 8.00 in assay [1] and greater than 6.30 in assay [2] (read-out: pBTK IC50, human whole blood, 37° C. for 30 min).

On to `Cc1cc(-c2ccnc(Nc3cnn(C(C)(C)C(=O)NCC(F)(F)F)c3)n2)ccc1CNC(=O)N1CC(OC(C)C)C1` [Example I-312, N-[[4-[2-[[1-[1,1-dimethyl-2-oxo-2-(2,2,2-trifluoroethylamino)ethyl]pyrazol-4-yl]amino]pyrimidin-4-yl]-2-methyl-phenyl]methyl]-3-isopropoxy-azetidine-1-carboxamide], for which the pIC50 was greater than 8.00 in assay [1] and greater than 6.30 in assay [2].

On to `Cc1cc(-c2ccnc(Nc3cnn([C@@H]4CCNC4)c3)n2)ccc1CNC(=O)c1cnc(C(C)(C)C)s1` [Example I-122, (R)-2-(tert-butyl)-N-(2-methyl-4-(2-((1-(pyrrolidin-3-yl)-1H-pyrazol-4-yl)amino)pyrimidin-4-yl)benzyl)thiazole-5-carboxamide], for which the pIC50 in assay [1] was greater than 8.00; in assay [2] it was greater than 6.30.

Consider `Cc1cc(-c2ccnc(Nc3cnn(C)c3)n2)ccc1CNC(=O)N1CCC(C(C)(C)C)C1` (centres unmarked) [Example I-224, 3-(tert-butyl)-N-(2-methyl-4-(2-((1-methyl-1H-pyrazol-4-yl)amino)pyrimidin-4-yl)benzyl)pyrrolidine-1-carboxamide], for which the negative logarithm of the IC50 (pIC50) in assay [1] was greater than 8.00; in assay [2], greater than 6.30.

What is called pIC50 is the negative decadic logarithm of the IC50, by convention in mol/L.

The values above are taken from patent US10759783B2, “Biaryl inhibitors of Bruton'S tyrosine kinase” (BIOGEN MA INC., priority 2013, dated 2020).
